This is an account of results in patent US20260125346A1, “Isoquinolinone Derivatives and 4H-Quinolizinone Derivatives and Pharmaceutical Compositions Thereof for the Treatment of Disease” (BeOne Medicines I GmbH, priority 2023, published 2026).

Experiment [1] addresses PI3Kα (p110/p85) kinase (wild type, "WT") (Homo sapiens, UniProt P42336). The experiment can be described thus: PI3Kα (p110/p85) kinase ADP-Glo Assay. The note with it: 25 uM ATP. It counts as biochemical. The method, then:
PI3Kα (p110/p85) kinase ADP-Glo Assay. Certain compounds disclosed herein were tested for inhibition of PI3Kα (p110/p85) kinase (wild type, “WT”) in assays based on the ADP-Glo™ Kinase Assay methodology. The assays were carried out in 384-well white plates in a reaction mixture containing PI3Kα (p110/p85) kinase, 25 µM ATP, 5.35 µg/mL PI(4,5)P2:PS Lipid Kinase Substrate and […] compound in buffer containing 50 mM HEPES pH7.5, 50 mM NaCl, 3 mM MgCl2, 0.0025% BSA and 2 mM DTT. PI3Kα (p110/p85) kinase was incubated with Lipid Kinase Substrate and compound for 30 minutes at room temperature and the reaction was initiated by the addition of ATP. After reaction at room temperature for 120 minutes, ADP-Glo™ reagents were added to terminate the kinase reaction and deplete the remaining ATP according to the manufacture's instruction (Promega Corporation). After incubation at room temperature for 1 hour, Kinase Detection Reagent (prepared by reconstituting the lyophilized Kinase Detection Substrate with Kinase Detection Buffer of the kit) was added to convert the ADP to ATP and to allow for the newly synthesized ATP to be measured using a luciferase/luciferin reaction. After incubation at room temperature for 0.5 hour, chemiluminescence signals were recorded on a PHERAstar FSX plate reader (BMG Labtech). The chemiluminescence generated in this assay correlates to the amount of ADP generated in the kinase assay, indicating kinase activity. […] The IC50 for each compound was derived from fitting the data to the four-parameter logistic equation by Dotmatics.
Background: In ADP-Glo the light output rises with the ADP produced.

The next experiment deals with WT cell line SK-BR-3. Briefly: Phospho-AKT (Ser473) Inhibition Assay (HTRF), SK-BR-3. The note with it: Homo sapiens; SK-BR-3, 1 hour treatment; read-out: p-AKT Inhibition assay (S473) IC50 SK-BR-3. It counts as cell-based. The method, then: The SK-BR-3 (ATCC, HTB-30) cell line was obtained from the American Type Culture Collection. Cells were maintained in McCoy' 5A medium (Gibco, REF #16600108) supplemented with 10% Fetal Bovine Serum. Cultures were maintained in a humidified incubator at 37° C. under 5% CO2/95% air.
(§1) Phospho-AKT Inhibition Assay. HTRF Phospho-AKT (Ser473) detection kit (Cisbio, REF #64AKSPEH) was used in phosphor-AKT inhibition assay. For compound screening, PI3Kα H1047R mutated cell line T-47D and WT cell line SK-BR-3 cells were seeded at a density of 3×10^4 cells per well in 96 well plate (Costar, REF #3599) in 95 μL of assay medium (MEM medium (Gibco, REF #12561-056) with 1×NEAA (Gibco, REF #11140-050), 1 mM sodium pyruvate (Gibco, REF #11360-070), and 1 g/ml human insulin (Topscience, REF #T8221)), overnight. Compounds dissolved in 10 mM stock solutions in DMSO were serially diluted 1:3 in DMSO to generate an 11-point dilution series and plated using an INTEGRA ASSIST PLUS pipetting robot. A 20× intermediate compound dilution plate in RPMI1640 medium (200 M starting compound concentration in 2% DMSO) was then prepared. Five μL of intermediate serially diluted compounds were added to the cell plate to final concentrations ranging from […] to 0.1 nM in 0.1% DMSO. 0.1% DMSO alone was used to establish the maximum signal and GDC0077 at final concentration of 10 μM was used as a reference compound for minimum signal. After 1 hour treatment, removed medium and added 50 μL of supplemented lysis buffer (1×) immediately. Incubated for at least 30 minutes at room temperature under shaking. Transferred 16 μL of cell lysate from the 96-well cell-culture plate to a 384-white detection plate (PerkinElmer, Optiplate 384, 6007299). Added 4 μL of premixed antibody solutions prepared in the detection buffer. Incubated 4 hours at room temperature in dark. The plates were read on PHERAstar FSX Microplate reader (BMG LABTECH, Inc.) using standard HTRF settings.
(§2) Relative IC50 values were determined using luminescence units by calculating percent inhibition with respect to the in-plate “MIN” (GDC0077 reference control) and “MAX” (DMSO) controls. The data were analyzed using a 4-parameter nonlinear logistic equation (four-parameter logistic concentration-response curve): Y=bottom+[(top−bottom)/1+(X/IC50) slope] • where Y=% inhibition, X=concentration of inhibitor, bottom=minimum value of y attained by curve-fit, top=maximum value of y attained by curve-fit and slope=steepness of curve at the IC50.

Experiment [2] deals with PI3Kα H1047R mutated cell line T-47D. The experiment can be described thus: Phospho-AKT (Ser473) Inhibition Assay (HTRF), T-47D. Particulars: for IC50: Homo sapiens, T47D, T-47D, 1 hour treatment, read-out: p-AKT Inhibition assay (S473) IC50 T-47D; for Selectivity: SK-BR-3/T-47D (p-AKT): p-AKT (S473) IC50 ratio. Format: cell-based. The method, then:
(§3) Cell Culture Maintenance. The T-47D (ATCC, HTB-133) cell line was obtained from the American Type Culture Collection. Cells were maintained in RPMI1640 medium (Gibco, REF #22400105) supplemented with 10% Fetal Bovine Serum (Gibco, REF #10091148). Cultures were maintained in a humidified incubator at 37° C. under 5% CO2/95% air.
as §1, §2
A general note: In TR-FRET formats the signal depends on donor and acceptor labels being close together.

The target in experiment [3] is PI3Kα (p110[H1047R]/p85) kinase (Homo sapiens, UniProt P42336, H1047R). Briefly: PI3Kα (p110[H1047R]/p85) kinase ADP-Glo Assay. Format: biochemical. The note with it: 25 uM ATP; for selectivity: WT/H1047R: ADP-Glo Assay IC50 ratio. The procedure: PI3Kα (p110[H1047R]/p85) kinase ADP-Glo Assay. Certain compounds disclosed herein were tested for inhibition of PI3Kα (p110[H1047R]/p85) kinase in assays based on the ADP-Glo™ Kinase Assay methodology. The assays were carried out in 384-well white plates in a reaction mixture containing PI3Kα (p110[H1047R]/p85) kinase, 25 µM ATP, 5.35 µg/ml PI(4,5)P2:PS Lipid Kinase Substrate and […] compound in buffer containing 50 mM HEPES pH7.5, 50 mM NaCl, 3 mM MgCl2, 0.0025% BSA and 2 mM DTT. PI3Kα (p110[H1047R]/p85) kinase was incubated with Lipid Kinase Substrate and compound for 30 minutes at room temperature and the reaction was initiated by the addition of ATP.
Chain of PI3Kα (p110[H1047R]/p85) kinase (P42336 whole entry H1047R): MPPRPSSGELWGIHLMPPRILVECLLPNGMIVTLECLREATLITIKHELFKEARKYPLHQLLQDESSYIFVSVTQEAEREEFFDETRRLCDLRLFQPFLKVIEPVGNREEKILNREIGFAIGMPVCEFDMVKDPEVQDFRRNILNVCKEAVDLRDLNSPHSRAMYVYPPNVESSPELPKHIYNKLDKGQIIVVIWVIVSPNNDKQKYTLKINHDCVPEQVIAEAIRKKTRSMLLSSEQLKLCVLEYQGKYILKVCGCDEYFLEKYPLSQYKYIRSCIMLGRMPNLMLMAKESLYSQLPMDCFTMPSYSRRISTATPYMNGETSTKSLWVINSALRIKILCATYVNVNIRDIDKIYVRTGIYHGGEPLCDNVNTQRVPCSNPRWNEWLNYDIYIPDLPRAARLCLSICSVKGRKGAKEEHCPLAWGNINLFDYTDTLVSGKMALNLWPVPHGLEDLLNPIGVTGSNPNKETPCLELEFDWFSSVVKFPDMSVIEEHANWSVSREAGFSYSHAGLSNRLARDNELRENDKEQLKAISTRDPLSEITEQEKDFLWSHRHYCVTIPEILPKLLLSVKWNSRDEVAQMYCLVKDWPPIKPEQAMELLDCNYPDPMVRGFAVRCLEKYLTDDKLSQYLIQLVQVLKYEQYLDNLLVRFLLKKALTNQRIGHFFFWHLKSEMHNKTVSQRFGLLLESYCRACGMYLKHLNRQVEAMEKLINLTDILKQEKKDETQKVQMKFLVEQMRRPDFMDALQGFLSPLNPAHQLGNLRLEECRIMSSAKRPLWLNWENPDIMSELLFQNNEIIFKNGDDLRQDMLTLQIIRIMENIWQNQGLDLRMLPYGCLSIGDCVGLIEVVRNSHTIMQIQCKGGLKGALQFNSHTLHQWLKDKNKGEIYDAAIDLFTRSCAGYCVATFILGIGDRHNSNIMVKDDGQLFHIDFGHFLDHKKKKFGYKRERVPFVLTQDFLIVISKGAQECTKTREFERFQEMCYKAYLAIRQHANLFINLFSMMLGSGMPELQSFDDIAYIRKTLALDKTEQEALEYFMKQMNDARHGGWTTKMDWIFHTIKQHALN
Chain of PI3Kα (p110[H1047R]/p85) kinase (P27986 whole entry partner): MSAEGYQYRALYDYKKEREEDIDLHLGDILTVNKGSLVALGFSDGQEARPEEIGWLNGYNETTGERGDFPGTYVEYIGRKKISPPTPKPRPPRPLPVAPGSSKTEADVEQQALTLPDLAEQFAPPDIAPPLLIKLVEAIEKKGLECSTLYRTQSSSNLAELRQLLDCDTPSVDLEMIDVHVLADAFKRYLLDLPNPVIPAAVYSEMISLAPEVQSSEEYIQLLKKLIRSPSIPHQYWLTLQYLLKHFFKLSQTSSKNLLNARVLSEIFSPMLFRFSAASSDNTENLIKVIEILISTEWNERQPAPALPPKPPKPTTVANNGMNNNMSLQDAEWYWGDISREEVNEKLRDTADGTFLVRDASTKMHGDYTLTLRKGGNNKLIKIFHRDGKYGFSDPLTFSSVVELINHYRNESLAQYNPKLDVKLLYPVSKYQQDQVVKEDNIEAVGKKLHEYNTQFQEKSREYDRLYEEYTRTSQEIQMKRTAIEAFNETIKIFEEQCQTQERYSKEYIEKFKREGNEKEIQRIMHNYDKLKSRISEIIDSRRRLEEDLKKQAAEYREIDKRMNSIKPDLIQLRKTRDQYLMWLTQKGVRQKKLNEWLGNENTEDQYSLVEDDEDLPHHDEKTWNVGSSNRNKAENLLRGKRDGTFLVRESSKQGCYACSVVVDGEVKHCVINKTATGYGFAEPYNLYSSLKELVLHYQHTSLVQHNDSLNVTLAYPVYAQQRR
After reaction at room temperature for 120 minutes, ADP-Glo™ reagents were added to terminate the kinase reaction and deplete the remaining ATP according to the manufacture's instruction (Promega Corporation). After incubation at room temperature for 1 hour, Kinase Detection Reagent (prepared by reconstituting the lyophilized Kinase Detection Substrate with Kinase Detection Buffer of the kit) was added to convert the ADP to ATP and to allow for the newly synthesized ATP to be measured using a luciferase/luciferin reaction. After incubation at room temperature for 0.5 hour, chemiluminescence signals were recorded on a PHERAstar FSX plate reader (BMG Labtech). The chemiluminescence generated in this assay correlates to the amount of ADP generated in the kinase assay, indicating kinase activity. […] The IC50 for each compound was derived from fitting the data to the four-parameter logistic equation by Dotmatics.

The subject of experiment [4] is PI3Kα H1047R mutated cell line T-47D cells. The experiment can be described thus: Cell Proliferation Assay (CellTiter-Glo), T-47D. It counts as cell-based. The note with it: Homo sapiens, T47D, 72 h; T-47D, 3 days treatment. The method, then:
as §3
Cell Proliferation Assay. PI3Kα H1047R mutated cell line T-47D cells and WT cell line SK-BR-3 were seeded at a density of 3×10^3 cells per well in 96 well plate (Xinyou Biotechnology, 062096) in 95 μL of culture medium, overnight. Compounds dissolved in 10 mM stock solutions in DMSO were serially diluted 1:3 in DMSO to generate a 9-point dilution series and plated using an INTEGRA ASSIST Plus pipetting robot. A 20× intermediate compound dilution plate in RPMI1640 medium (200 M starting compound concentration in 2% DMSO) was then prepared. Five μL of intermediate serially diluted compounds were added to the cell plate to final concentrations ranging from […] to 1 nM in 0.1% DMSO. 0.1% DMSO alone was used to establish the maximum signal and medium without cells was for minimum signal. After 3 days treatment, equilibrated the plate and its contents at room temperature for approximately 30 minutes. Added 30 μL CellTiter-Glo® Reagent (Promega, REF #G7571) to each well. Then mixed contents for 5 min on plate shaker to induce cell lysis. Incubated at room temperature for 10 minutes to stabilize luminescent signal. The plates were read on PHERAstar FSX Microplate reader using standard luminescence settings.
Relative IC50 values were determined using luminescence units by calculating percent inhibition with respect to the in-plate “MIN” (medium only) and “MAX” (0.1% DMSO) controls. The data were analyzed using a 4-parameter nonlinear logistic equation (four-parameter logistic concentration-response curve): Y=bottom+[(top−bottom)/1+(X/IC50) slope] • where Y=% inhibition, X=concentration of inhibitor, bottom=minimum value of y attained by curve-fit, top=maximum value of y attained by curve-fit and slope=steepness of curve at the IC50.
In general terms: ATP-based viability assays read luminescence as a measure of living cells.

Chain of PI3Kα (p110/p85) kinase (wild type, "WT") (P42336 whole entry): as the sequence (P42336 whole entry H1047R) above, with R1047H counted along it
Chain of PI3Kα (p110/p85) kinase (wild type, "WT") (P27986 whole entry partner): as the sequence (P27986 whole entry partner) above

As usually defined, the IC50 is the point on the concentration scale where inhibition reaches its midpoint. For `Cc1cc(C(C)Nc2ccccc2C(=O)O)c2cc(-c3ccccc3)[nH]c(=O)c2c1` (stereo not drawn) [Example 26, 2-((1-(7-methyl-1-oxo-3-phenyl-1,2-dihydroisoquinolin-5-yl)ethyl)amino)benzoic acid], the IC50 in experiment [1] is 6.25 µM; with WT cell line SK-BR-3 it was over 10 µM; in experiment [2], 0.05 µM; in experiment [3], 0.158 µM. Moreover, the “Selectivity: SK-BR-3/T-47D (p-AKT)” value in experiment [2] is reported as over 198. For the same compound, the “selectivity: WT/H1047R” value in experiment [3] came out at 40.

For `CC#Cc1cc2c(C(C)Nc3ccccc3C(=O)O)cc(C)cc2c(=O)n1C` (stereo not drawn) [Example 27, 2-((1-(2,7-dimethyl-1-oxo-3-(prop-1-yn-1-yl)-1,2-dihydroisoquinolin-5-yl)ethyl)amino)benzoic acid], the IC50 was 60.2 µM in experiment [1], over 10 µM with WT cell line SK-BR-3, 0.245 µM in experiment [2] and 0.762 µM in experiment [3]. In addition, the “Selectivity: SK-BR-3/T-47D (p-AKT)” value in experiment [2] is over 21. The “selectivity: WT/H1047R” value in experiment [3] came out at 79.

With `Cc1cc(C(C)Nc2ccccc2C(=O)O)c2cc(C(=O)Nc3ccccc3)n(C)c(=O)c2c1` (stereo not drawn) [Example 42, 2-((1-(2,7-dimethyl-1-oxo-3-(phenylcarbamoyl)-1,2-dihydroisoquinolin-5-yl)ethyl)amino)benzoic acid], the IC50 in experiment [1] amounted to 71.6 µM; in experiment [4], 3.53 µM; in experiment [2], 0.298 µM; in experiment [3], 0.971 µM. Moreover, the “selectivity: WT/H1047R” value in experiment [3] was determined as 73.8.

For `Cc1cc(C(C)Nc2cnccc2C(=O)O)c2cc(-c3ccc(F)cc3)n(C)c(=O)c2c1` (stereo not drawn) [Example 54, 3-((1-(3-(4-fluorophenyl)-2,7-dimethyl-1-oxo-1,2-dihydroisoquinolin-5-yl)ethyl)amino)isonicotinic acid], the half-maximal inhibitory concentration (IC50) in experiment [1] is over 100 µM. Besides, in experiment [3], the IC50 turned out to be 9.29 µM and the “selectivity: WT/H1047R” value is recorded as over 10.

Consider `COc1ncc(-c2cc3c([C@H](C)Nc4ccccc4C(=O)O)cc(C)cc3c(=O)n2C)cc1F` [Example 60, (S)-2-((1-(3-(5-fluoro-6-methoxypyridin-3-yl)-2,7-dimethyl-1-oxo-1,2-dihydroisoquinolin-5-yl)ethyl)amino)benzoic acid], for which the IC50 came to 24.1 µM in experiment [1] and 16.4 µM in experiment [3]. Also, in experiment [3], the “selectivity: WT/H1047R” value is 1.5.

Consider `Cc1cc([C@H](C)Nc2ccccc2C(=O)O)c2cc(-c3ccc(F)cc3)n(CC#N)c(=O)c2c1` [Example 65, (S)-2-((1-(2-(cyanomethyl)-3-(4-fluorophenyl)-7-methyl-1-oxo-1,2-dihydroisoquinolin-5-yl)ethyl)amino)benzoic acid], for which the IC50 in experiment [1] and in experiment [3] was over 100 µM throughout.

In the case of `Cc1cc([C@H](C)Nc2ccccc2C(=O)O)c2cc(-c3cnc(C(C)(C)O)nc3)n(C)c(=O)c2c1` [Example 68, (S)-2-((1-(3-(2-(2-hydroxypropan-2-yl)pyrimidin-5-yl)-2,7-dimethyl-1-oxo-1,2-dihydroisoquinolin-5-yl)ethyl)amino)benzoic acid], the results for the IC50 in experiment [1] and in experiment [3] were 34.3 µM and 21.7 µM, respectively. Also, in experiment [3], the “selectivity: WT/H1047R” value is listed as 1.6.

In experiment [1], `Cc1cc(C(C)Nc2ccccc2C(=O)O)c2cc(-c3ccccc3C(N)=O)n(C)c(=O)c2c1` (stereo not drawn) [Example 90, 2-((1-(3-(2-carbamoylphenyl)-2,7-dimethyl-1-oxo-1,2-dihydroisoquinolin-5-yl)ethyl)amino)benzoic acid] came in with an IC50 of 88.8 µM. In addition, in experiment [3], the IC50 turned out to be 1.93 µM and the “selectivity: WT/H1047R” value worked out at 46.0.

Consider `Cc1cc(C(C)Nc2csc3ccccc23)c2cc(-c3ccccc3)n(C)c(=O)c2c1` (stereo not drawn) [Example 93, 5-(1-(benzo[b]thiophen-3-ylamino)ethyl)-2,7-dimethyl-3-phenylisoquinolin-1(2H)-one], for which the IC50 in experiment [1] and in experiment [3] was over 100 µM throughout.

In experiment [1], `Cc1cc([C@@H](C)Nc2ccccc2C(=O)O)c2cc(-c3ccc(C(C)(C)O)cc3)n(C)c(=O)c2c1` [Example 98, (R)-2-((1-(3-(4-(2-hydroxypropan-2-yl)phenyl)-2,7-dimethyl-1-oxo-1,2-dihydroisoquinolin-5-yl)ethyl)amino)benzoic acid] came in with an IC50 of 7.36 µM. Besides, in experiment [3], half-maximal inhibition (IC50) was put at 0.432 µM and the “selectivity: WT/H1047R” value stood at 17.0.
